# Measurements from patent US20250388529A1, “N-Substituted Phenylalkylamines and Their Use as Therapeutic Agents” (priority 2023, published 2025).
# pEC50, pIC50, pKi: −log10 of the molar value. “Also recorded” adds a separate entry of the source.
# Assays:
# 5-HT2B = 5-HT2B (Homo sapiens, UniProt P41595); assay: Gq-mediated calcium flux assay, Flp-In 293 T-Rex inducible cells (agonist and antagonist mode); type: cell-based; design: expressed in transfected cells
# human Nav1.1 and Navβ1 [1] = target: T1, human Nav1.1 and Navβ1 (Homo sapiens, UniProt P35498); assay: cell-based; settings: for Peak INa Density @ −20 mV: I-V curve
# [2] = Chance observation of local anesthetic effect upon contact with mucous membranes; type: in vivo
# human 5-HT2C receptor = target: T2, human 5-HT2C receptor (Homo sapiens, UniProt P28335); assay: Gq-mediated calcium flux assay, Flp-In 293 T-Rex inducible cells (agonist and antagonist mode); type: cell-based
# T2 construct: expressed in transfected cells
# T2 sequence (P28335 33-458): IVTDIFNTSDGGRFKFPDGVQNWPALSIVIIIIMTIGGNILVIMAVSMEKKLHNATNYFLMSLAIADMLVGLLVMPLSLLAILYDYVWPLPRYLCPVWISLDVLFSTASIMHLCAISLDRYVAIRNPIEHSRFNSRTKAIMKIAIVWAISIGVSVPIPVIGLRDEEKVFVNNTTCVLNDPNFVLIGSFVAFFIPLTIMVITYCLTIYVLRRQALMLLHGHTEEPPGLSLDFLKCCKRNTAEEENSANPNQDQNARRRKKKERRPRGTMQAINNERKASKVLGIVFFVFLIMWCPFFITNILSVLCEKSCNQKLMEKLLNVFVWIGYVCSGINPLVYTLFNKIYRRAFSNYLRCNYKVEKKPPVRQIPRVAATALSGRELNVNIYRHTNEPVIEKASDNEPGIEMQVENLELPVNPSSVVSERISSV
# 5-HT2A = 5-HT2A (Homo sapiens, UniProt P28223); assay: as above; type: cell-based; design: expressed in transfected cells
# Chain of 5-HT2A (P28223 whole entry, the tested form may be a part): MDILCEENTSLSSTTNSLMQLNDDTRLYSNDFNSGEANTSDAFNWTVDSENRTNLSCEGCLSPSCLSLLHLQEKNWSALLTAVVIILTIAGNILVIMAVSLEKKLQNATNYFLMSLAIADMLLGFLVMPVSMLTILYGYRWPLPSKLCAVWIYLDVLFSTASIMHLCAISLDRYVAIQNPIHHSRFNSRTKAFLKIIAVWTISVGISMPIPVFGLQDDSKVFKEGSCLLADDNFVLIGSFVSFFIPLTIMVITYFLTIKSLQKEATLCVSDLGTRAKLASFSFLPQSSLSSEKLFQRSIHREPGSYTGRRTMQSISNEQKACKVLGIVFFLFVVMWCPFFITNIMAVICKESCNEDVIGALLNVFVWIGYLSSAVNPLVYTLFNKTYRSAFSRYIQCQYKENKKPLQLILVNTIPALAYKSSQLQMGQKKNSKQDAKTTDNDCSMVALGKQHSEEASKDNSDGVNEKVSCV
# human Nav1.1 and Navβ1 [3] = target: T1, human Nav1.1 and Navβ1; assay: Manual whole-cell patch clamp sodium current recording, HEK cells expressing hNav1.1 and Navβ1; type: cell-based; settings: for reduction in Nav1.1 peak INa: after 3.9 minutes of perfusion
# Description: Cell lines: Human Embryonic Kidney (HEK) 293 cells stably expressing human VGSC a subunit Nav1.1 (GenBank accession number NP_008851.3) were a gift from Dr. Massimo Mantegazza. Human VGSC β1 subunit GenBank accession number NP_001028.1) cDNA was transfected into this line to generate a second, stable line. Cells were cultured in Dulbecco's Modified Eagle Medium containing (4.5 g/L D-glucose, L-glutamine, 110 mg/L sodium pyruvate, 200 μg/mL G418, 100 U/mL penicillin/streptomycin). All cells were maintained in an incubator at 37° C. with 5% CO2.
# Manual Sodium Current Recording: Sodium current (INa) was measured at room temperature using the manual whole-cell patch clamp technique with previously described electrophysiological methods (Chen et al., J Biol Chem., 2012; 287 (46): 39061-39069). Cells were plated on 12 mm diameter clear glass poly-D-lysine coated coverslips (Neuvitro) and used for electrophysiological recordings within 48 hours after plating. Cells were identified with an AIR upright confocal microscope (Nikon). Micropipettes were obtained from 1.5 mm outer diameter capillary glass tubing (Harvard Apparatus) using a P-97 horizontal puller (Sutter Instrument Co.). Micropipettes were then polished using a MF-830 micro forge (Narishige) to obtain a resistance between 2.0 to 5.0 M (2. The intracellular solution contained the following (in mM): 1 NaCl, 125 N-methyl-D-glucamine, 2 MgCl2, 10 EGTA, 40 HEPES, 5 phosphocreatine-tris, 2 Mg-ATP, 0.2 Na2-GTP, 0.1 leupeptin, 270-275 mOsm, pH 7.2 with H2SO4. Extracellular solution contained the following (in mM): 120 NaCl, 1 BaCl2, 2 MgCl2, 0.2 CdCl2, 1 CaCl2), 20 sucrose, 10 glucose, 10 HEPES, 10 tetraethylammonium chloride, 300-305 mOsm, pH 7.35 with NaOH. Signals were amplified using a Multiclamp 700B amplifier (Molecular Devices). Data were acquired with a Digidata 1440A interface (Molecular Devices) and analyzed using pClamp10 offline. Pipette and whole-cell capacitance were fully compensated, and series resistance was predicted and compensated at 50%. Signals were low pass-filtered at 10 kHz, and data were sampled at 20 kHz. Residual linear capacity and leak currents were eliminated using online P/4 subtraction. Gravity-powered perfusion of XOB was used in all manual patch clamp experiments with a flow rate of 2-3 mL/min. All manual whole-cell INa recorded under XOB conditions was conducted after 3.9 minutes of perfusion unless indicated otherwise.
# HiBiT-5-HT1A = target: T3, HiBiT-5-HT1A (Homo sapiens, UniProt P08908); assay: cell-based; type: binding
# T3 construct: expressed in transfected cells; host or cells: HEK293 (transient)
# T3 sequence (P08908 whole entry): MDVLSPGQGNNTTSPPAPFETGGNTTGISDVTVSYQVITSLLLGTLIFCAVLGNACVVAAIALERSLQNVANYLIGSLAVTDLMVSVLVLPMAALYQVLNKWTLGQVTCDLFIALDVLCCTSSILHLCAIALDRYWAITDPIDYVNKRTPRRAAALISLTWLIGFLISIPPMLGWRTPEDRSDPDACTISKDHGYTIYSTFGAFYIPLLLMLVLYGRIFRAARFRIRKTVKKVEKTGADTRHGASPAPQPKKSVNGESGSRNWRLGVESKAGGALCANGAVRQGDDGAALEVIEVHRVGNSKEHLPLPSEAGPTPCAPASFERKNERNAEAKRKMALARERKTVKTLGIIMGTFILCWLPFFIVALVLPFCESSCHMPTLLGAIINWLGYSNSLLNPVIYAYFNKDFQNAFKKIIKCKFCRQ
# [4] = antagonist mode, concentrations up to 10 μM
# Chain of 5-HT2B (P41595 whole entry): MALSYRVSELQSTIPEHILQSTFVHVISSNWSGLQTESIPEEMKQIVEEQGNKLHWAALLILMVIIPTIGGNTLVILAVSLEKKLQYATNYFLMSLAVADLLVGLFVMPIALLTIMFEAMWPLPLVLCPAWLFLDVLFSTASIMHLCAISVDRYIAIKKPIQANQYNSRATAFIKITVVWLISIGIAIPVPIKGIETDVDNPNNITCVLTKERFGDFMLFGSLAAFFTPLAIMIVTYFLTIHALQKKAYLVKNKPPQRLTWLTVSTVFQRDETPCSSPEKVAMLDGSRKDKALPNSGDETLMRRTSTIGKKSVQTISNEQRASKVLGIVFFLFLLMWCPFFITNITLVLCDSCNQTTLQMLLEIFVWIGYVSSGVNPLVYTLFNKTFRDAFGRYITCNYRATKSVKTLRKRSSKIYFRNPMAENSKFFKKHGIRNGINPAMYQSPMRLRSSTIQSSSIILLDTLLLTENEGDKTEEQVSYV
compound,measurement,setting,value
"COc1cc(CCNCCCCCCOCCCCc2ccccc2)c(OC)cc1Br [XOB, N-(4-bromo-2,5-dimethoxyphenethyl)-6-(4-phenylbutoxy)hexan-1-amine]",agonist activity at 5-HT2B,"5-HT2B; agonist mode, up to 10 μM",little to no measurable agonist activity
same,inhibition of 5-HT-mediated calcium flux at 5-HT2B,5-HT2B; [4],< 50%
same,Bottom of concentration response curve (normalized peak INa inhibition),human Nav1.1 and Navβ1 [1],0.02
same,Hill Slope of concentration response curve on peak INa,human Nav1.1 and Navβ1 [1],1.45
same,Top of concentration response curve (normalized peak INa inhibition),human Nav1.1 and Navβ1 [1],0.88
same,effect on voltage-dependence of sodium conductance,human Nav1.1 and Navβ1 [1],no effect was observed
same,Normalized Peak INa Inhibition,"human Nav1.1 and Navβ1 [1]; 0.1 nM, peak protocol",−0.077 ± 0.08
same,Peak INa Density,"human Nav1.1 and Navβ1 [1]; 0.1 nM, peak protocol",−429.6 ± 50.7 pA/pF
same,Peak INa Density @ −20 mV,human Nav1.1 and Navβ1 [1]; 1 nM,−395.9 ± 56.0 pA/pF
same,Normalized Peak INa Inhibition,"human Nav1.1 and Navβ1 [1]; 1 nM, peak protocol",0.015 ± 0.03
same,Peak INa Density,"human Nav1.1 and Navβ1 [1]; 1 nM, peak protocol",−386.1 ± 56.6 pA/pF
same,Peak INa Density @ −20 mV,human Nav1.1 and Navβ1 [1]; 10 nM,−319.1 ± 50.5 pA/pF
same,Normalized Peak INa Inhibition,"human Nav1.1 and Navβ1 [1]; 10 nM, peak protocol",−0.011 ± 0.03
same,Peak INa Density,"human Nav1.1 and Navβ1 [1]; 10 nM, peak protocol",−311.1 ± 41.7 pA/pF
same,Peak INa Density @ −20 mV,human Nav1.1 and Navβ1 [1]; 100 nM,−258.3 ± 34.1 pA/pF
same,Normalized Peak INa Inhibition,"human Nav1.1 and Navβ1 [1]; 100 nM, peak protocol",0.13 ± 0.02
same,Peak INa Density,"human Nav1.1 and Navβ1 [1]; 100 nM, peak protocol",−276.0 ± 31.0 pA/pF
same,Peak INa Density @ −20 mV,human Nav1.1 and Navβ1 [1]; 300 nM,−235.1 ± 37.9 pA/pF
same,Normalized Peak INa Inhibition,"human Nav1.1 and Navβ1 [1]; 300 nM, peak protocol",0.08 ± 0.06
same,Peak INa Density,"human Nav1.1 and Navβ1 [1]; 300 nM, peak protocol",−259.2 ± 38.0 pA/pF
same,Peak INa Density @ −20 mV,human Nav1.1 and Navβ1 [1]; 500 nM,−269.2 ± 38.8 pA/pF
same,Normalized Peak INa Inhibition,"human Nav1.1 and Navβ1 [1]; 500 nM, peak protocol",0.05 ± 0.07
same,Peak INa Density,"human Nav1.1 and Navβ1 [1]; 500 nM, peak protocol",−284.6 ± 35.2 pA/pF
same,Peak INa Density @ −20 mV,human Nav1.1 and Navβ1 [1]; 1 μM,−320.5 ± 40.0 pA/pF
same,Normalized Peak INa Inhibition,"human Nav1.1 and Navβ1 [1]; 1 μM, peak protocol",0.12 ± 0.03
same,Peak INa Density,"human Nav1.1 and Navβ1 [1]; 1 μM, peak protocol",−319.1 ± 34.5 pA/pF
same,Activation Slope Factor,human Nav1.1 and Navβ1 [1]; 3 μM,6.18 ± 1.1 mV^−1
same,Activation V1/2,human Nav1.1 and Navβ1 [1]; 3 μM,−34.32 ± 1.8 mV
same,Capacitance,human Nav1.1 and Navβ1 [1]; 3 μM,11.17 ± 1.0 pF
same,Inactivation Slope Factor,human Nav1.1 and Navβ1 [1]; 3 μM,−6.41 ± 0.7 mV^−1
same,Inactivation V1/2,human Nav1.1 and Navβ1 [1]; 3 μM,−60.46 ± 1.5 mV
same,Peak INa Density @ −20 mV,human Nav1.1 and Navβ1 [1]; 3 μM,−149.4 ± 22.4 pA/pF
same,Normalized Peak INa Inhibition,"human Nav1.1 and Navβ1 [1]; 3 μM, peak protocol",0.36 ± 0.05
same,Peak INa Density,"human Nav1.1 and Navβ1 [1]; 3 μM, peak protocol",−187.1 ± 23.3 pA/pF
same,Peak INa Density @ −20 mV,human Nav1.1 and Navβ1 [1]; 5 μM,−115.6 ± 20.4 pA/pF
same,Normalized Peak INa Inhibition,"human Nav1.1 and Navβ1 [1]; 5 μM, peak protocol",0.46 ± 0.06
same,Peak INa Density,"human Nav1.1 and Navβ1 [1]; 5 μM, peak protocol",−171.3 ± 22.2 pA/pF
same,reduction of baseline peak INa,human Nav1.1 and Navβ1 [1]; 10 μM,73±3%
same,Peak INa Density @ −20 mV,"human Nav1.1 and Navβ1 [1]; 10 μM, step −120 mV to −20 mV",−17.46±3.1 pA/pF
same,Peak INa Density,"human Nav1.1 and Navβ1 [1]; 10 μM, peak protocol",−85.4 ± 12.9 pA/pF
same,Normalized Peak INa Inhibition,"human Nav1.1 and Navβ1 [1]; 10 μM, peak protocol, 1−(IDrug÷IReference)",0.73 ± 0.03
same,pIC50,"human Nav1.1 and Navβ1 [1]; concentration response curve, peak protocol, read-out: IC50, inhibition of peak INa (VGSC)",5.37
same,local anesthetic effect,[2],profound and long-lasting local anesthetic effect
same,agonist activity at 5-HT2C,"human 5-HT2C receptor; agonist mode, up to 10 μM",little to no measurable agonist activity
same,inhibition of 5-HT-mediated calcium flux at 5-HT2C,human 5-HT2C receptor; [4],< 50%
same,agonist activity at 5-HT2A,"5-HT2A; agonist mode, up to 10 μM",little to no measurable agonist activity
same,pIC50,"5-HT2A; antagonist mode, 3.2 nM 5-HT, read-out: IC50, antagonism at 5-HT2A",5.89
same,pEC50,"5-HT2A; antagonist mode, read-out: EC50, antagonizes 5-HT2A",5.89
same,reduction in Nav1.1 peak INa,human Nav1.1 and Navβ1 [3]; 1 μM,35.3%
same,% Initial Peak INa,"human Nav1.1 and Navβ1 [3]; 1 μM, time 0 s, step −120 mV to 0 mV",100%
same,% Initial Peak INa,"human Nav1.1 and Navβ1 [3]; 1 μM, time 31.2 s",100.6%
same,% Initial Peak INa,"human Nav1.1 and Navβ1 [3]; 1 μM, time 62.4 s",93.0%
same,% Initial Peak INa,"human Nav1.1 and Navβ1 [3]; 1 μM, time 93.6 s",88.8%
same,% Initial Peak INa,"human Nav1.1 and Navβ1 [3]; 1 μM, time 124.8 s",87.0%
same,% Initial Peak INa,"human Nav1.1 and Navβ1 [3]; 1 μM, time 150.8 s",77.7%
same,% Initial Peak INa,"human Nav1.1 and Navβ1 [3]; 1 μM, time 182 s",75.1%
same,% Initial Peak INa,"human Nav1.1 and Navβ1 [3]; 1 μM, time 213.2 s",70.9%
same,% Initial Peak INa,"human Nav1.1 and Navβ1 [3]; 1 μM, time 234 s",64.7%
same,reduction in Nav1.1 peak INa,human Nav1.1 and Navβ1 [3]; 5 μM,95.7%
same,% Initial Peak INa,"human Nav1.1 and Navβ1 [3]; 5 μM, time 0 s, step −120 mV to 0 mV",100%
same,% Initial Peak INa,"human Nav1.1 and Navβ1 [3]; 5 μM, time 31.2 s",95.4%
same,% Initial Peak INa,"human Nav1.1 and Navβ1 [3]; 5 μM, time 62.4 s",40.0%
same,% Initial Peak INa,"human Nav1.1 and Navβ1 [3]; 5 μM, time 93.6 s",23.7%
same,% Initial Peak INa,"human Nav1.1 and Navβ1 [3]; 5 μM, time 124.8 s",11.2%
same,% Initial Peak INa,"human Nav1.1 and Navβ1 [3]; 5 μM, time 150.8 s",9.3%
same,% Initial Peak INa,"human Nav1.1 and Navβ1 [3]; 5 μM, time 182 s",5.4%
same,% Initial Peak INa,"human Nav1.1 and Navβ1 [3]; 5 μM, time 213.2 s",6.4%
same,% Initial Peak INa,"human Nav1.1 and Navβ1 [3]; 5 μM, time 234 s",4.3%
same,reduction in Nav1.1 peak INa,human Nav1.1 and Navβ1 [3]; 10 μM,98.6%
same,% Initial Peak INa,"human Nav1.1 and Navβ1 [3]; 10 μM, time 0 s, step −120 mV to 0 mV",100%
same,% Initial Peak INa,"human Nav1.1 and Navβ1 [3]; 10 μM, time 31.2 s",97.1%
same,% Initial Peak INa,"human Nav1.1 and Navβ1 [3]; 10 μM, time 62.4 s",94.8%
same,% Initial Peak INa,"human Nav1.1 and Navβ1 [3]; 10 μM, time 93.6 s",73.7%
same,% Initial Peak INa,"human Nav1.1 and Navβ1 [3]; 10 μM, time 124.8 s",28.5%
same,% Initial Peak INa,"human Nav1.1 and Navβ1 [3]; 10 μM, time 150.8 s",8.7%
same,% Initial Peak INa,"human Nav1.1 and Navβ1 [3]; 10 μM, time 182 s",2.9%
same,% Initial Peak INa,"human Nav1.1 and Navβ1 [3]; 10 μM, time 213.2 s",2.5%
same,% Initial Peak INa,"human Nav1.1 and Navβ1 [3]; 10 μM, time 234 s",1.4%
same,binding affinity at 5-HT1A (in words),HiBiT-5-HT1A,no measurable affinity; also recorded: negligible binding affinity
same,pKi,"HiBiT-5-HT1A; equilibrium competitive displacement, Cheng-Prusoff, read-out: KI (binding affinity) at 5-HT1A",< 5.00
